Reference: publication PMC2837349 (PLoS ONE, 2010)
Counter-ions that a name gives are not always drawn.

Test system: rhinocerase
Details: read-out: Km ^a; 0.1M Tris-HCl pH 7.4, 37°C, 7 min; 100 µg enzyme

`Cc1cc(=O)oc2cc(NC(=O)[C@H](CCCNC(=N)N)NC(=O)c3ccccc3)ccc12` [Arg-AMC, Nα-benzoyl-L-arginine 7-amido-4-methylcoumarin.HCl] gave a Km of 80 ± 2.02 µM.
